{"source": "paper PMC10107299", "about": "“Neutralizing the Impact of the Virulence Factor LecA from Pseudomonas aeruginosa on Human Cells with New Glycomimetic Inhibitors” (Angewandte Chemie (International Ed. in English), 2023)", "key": {"plasma protein": {"tested_on": "plasma protein", "test": "Plasma protein binding (rapid equilibrium device), murine plasma", "format": "in vitro ADME, mouse", "settings": "1 µM", "experimental": "mixer (Eppendorf). Acetonitrile and caffeine were dispensed using a Mantis Formulatrix. Then samples were centrifuged for 20 min at 2.270 x g at 4 °C and the supernatants were transferred to 96-well Greiner V-bottom plates. Peak areas of each compound and of the internal standard were analyzed using the MultiQuant 3.0 software (AB Sciex). Peak areas of the respective compound were normalized to the internal standard peak area and to the respective peak areas at time point 0 min: (C/D)/(A/B) with A: peak area of the compound at time point 0 min, B: peak area of the internal standard at time point 0 min, C: peak area of the compound at the respective time point, D: peak area of the internal standard at the respective time point. […]\nAssessment of plasma protein binding\nPlasma protein binding was assessed using the rapid equilibrium device (RED) system from ThermoFisher. Compounds were dissolved in DMSO. […]\nhigh plasma protein binding. Compounds were diluted in murine plasma (from CD-1 mice, pooled) or in human plasma (human donors, both genders, pooled) to a final concentration of 1 µM. Dialysis buffer and plasma samples were added to the respective chambers according the manufacturer’s protocol. The RED plate was sealed with a tape and incubated at 37 °C for 2 hours at 800 rpm on an Eppendorf MixMate vortex-mixer. Then samples were withdrawn from the respective chambers. To 25 µL of each dialysis sample, 25 µL of plasma and to 25 µL of plasma sample, 25 µL of dialysis buffer was added. Then 150 µL ice-cold extraction solvent (ACN/H2O (90:10) containing 12.5 ng/mL caffeine as internal standard) was added. Samples were incubated for 30 min on ice. Then samples were centrifuged at 4 °C at 2270 x g for 10 min.\nSupernatants were transferred to Greiner V-bottom 96-well plates and sealed with a tape. The […]\npercentage of bound compound was calculated as follows:\n(1) % free = (concentration buffer chamber / concentration plasma chamber) *100 […]\nSamples were analyzed using an Agilent 1290 Infinity II HPLC system coupled to an AB Sciex QTrap 6500plus mass spectrometer. LC conditions were as follows: column: Agilent […]\nZorbax Eclipse Plus C18, 50x2.1 mm, 1.8 µm; temperature: 30 °C; injection volume: 5 µL per […]\nsample; flow rate: 700 µL/min. Samples were run under acidic and buffered conditions.\nSolvents for acidic conditions: A1: water + 0.1% formic acid; solvent B1: 95% acetonitrile/5% […]\nH2O + 0.1% formic acid; solvents for buffered conditions: A2: 95% water + 5% acetonitrile + […]\n5 mM ammonium acetate + 40 µL/L acetic acid; B2: 95% acetonitrile + 5% water + 5 mM […]\nammonium acetate + 40 µL/L acetic acid. The same gradient was applied for acidic and […]\nbuffered conditions: 99% A at 0 min, 99% A until 1 min, 99% - 0% A from 1 min to 4.0 min, […]\n0% A until 5.0 min. Mass transitions for controls and compounds are depicted in the following […]"}, "[1]": {"test": "In vivo pharmacokinetic study in mice", "parameters": "species or system CD-1 mice", "settings": "1 mg kg^−1 i.v.; for Cmax: male, CD-1, mouse, urine, iv", "experimental": "Encouraged by these promising in vitro results, an in vivo pharmacokinetic study was conducted for H2 and L2 in mice (1 mg kg^−1, i. v.) and in rats for L2 (10 mg kg^−1, i. v.). Compound concentrations were monitored in plasma and urine (Figure 6). H2 and L2 were cleared from mouse plasma within 1 h. Both compounds rapidly reached high concentrations in urine, several orders of magnitude above their respective in vitro LecA binding affinity. In fact, concentrations above the K ds were detected over the entire observation period of 5 h. […] In rats, higher amounts of L2 were detected both in plasma and urine, not solely corresponding to the 10‐fold increased dose. […] Importantly, high levels of L2 were present in rat urine even 24 h after administration.\nPharmacokinetic studies in mice\nFor pharmacokinetic experiments, outbred male CD-1 mice (Charles River, Germany), 4-weeks-old, were used. The animal studies were conducted in accordance with the recommendations of the European Community (Directive 86/609/EEC, 24 November 1986). All animal procedures were performed in strict accordance with the German regulations of the Society for Laboratory Animal Science (GV-SOLAS) and the European Health Law of the Federation of Laboratory Animal Science Associations (FELASA). Animals were excluded from further analysis if sacrifice was necessary according to the humane endpoints established by the ethical board. All experiments were approved by the ethical board of the Niedersächsisches Landesamt für Verbraucherschutz und Lebensmittelsicherheit, Oldenburg, Germany (33.19-42502-04-20/3522). L2 and H2 were dissolved in water and administered in individual PK studies (N = 2 per study) at 1 mg/kg intravenously. Up to 25 µl blood was collected from the lateral tail vein and time points t = 0.25, 0.5, 1 and 3 hours. At t = 5 hours animals were euthanized to collect blood. At time points t = 0.25, 0.5, 1, 3 and 5 hours spontaneous urine was collected as well. Whole blood was collected into Eppendorf tubes coated with 0.5 M EDTA and immediately spun down at […]\n15870 x g for 10 min at 4 °C. […]\nRats were provided with a catheter in the jugular vein 2 - 3 days prior to drug administration and blood sampling. According to national animal welfare guidelines, rats were treated once with Carprofen (5 mg/kg) directly after catheterization. Catheter was rinsed daily with K3EDTA. […]\nFirst, a calibration curve was prepared by spiking different concentrations of L2 and H2 into mouse plasma, rat plasma or mouse urine (matrix for mouse and rat PK samples) from CD-1 mice. […] Samples from the mouse PK study with H2 in mice and from the rat PK study with L2 were analyzed via HPLC-MS/MS as described in the HPLC-MS analysis section above. PK samples from the mouse PK study with L2 were analyzed using an Agilent 1290 […]"}}, "data": [{"compound": "O=C(CCc1ccc(O[C@@H]2O[C@H](CO)[C@H](O)[C@H](O)[C@H]2O)cc1)Nc1ccc(OCCOc2ccc(NC(=O)CCc3ccc(O[C@@H]4O[C@H](CO)[C@H](O)[C@H](O)[C@H]4O)cc3)cn2)nc1", "note": "[Compound H2]", "values": [{"measurement": "PPB Mouse", "setting": "plasma protein", "value": "97.6 ± 2.1", "unit": "%"}, {"measurement": "Time to clearance from mouse plasma", "setting": "[1]", "value": "≤ 1", "unit": "h"}, {"measurement": "Cmax", "setting": "[1]", "value": 63, "unit": "µM"}]}, {"compound": "O=C(CCc1ccc(O[C@@H]2O[C@H](CO)[C@H](O)[C@H](O)[C@H]2O)cc1)Nc1ccc(CCc2ccc(NC(=O)CCc3ccc(O[C@@H]4O[C@H](CO)[C@H](O)[C@H](O)[C@H]4O)cc3)cc2S(=O)(=O)O)c(S(=O)(=O)O)c1", "note": "[Compound L2]", "values": [{"measurement": "PPB Mouse", "setting": "plasma protein", "value": "14.5 ± 6.8", "unit": "%"}, {"measurement": "Time to clearance from mouse plasma", "setting": "[1]", "value": "≤ 1", "unit": "h"}, {"measurement": "Cmax", "setting": "[1]", "value": 13.4, "unit": "µM"}]}]}
